Earlier results as cited in publication PMC2192333 (The Journal of Experimental Medicine, 1996).

How the values were obtained:
[1] = system: ICAM-3
[2] = system: human ICAM-1
[3] = system: C3bi; details: mutation in CD11b

CD11d/CD18: recently described fourth member of the CD18 integrins
binding to ICAM-3 [1]: high affinity

murine LFA-1: murine leukocyte integrin LFA-1
binding of murine LFA-1 to human ICAM-1 [2]: does not bind human ICAM-1

Asp-140GlySer to AlaGlyAla: mutation of the closely related integrin CD11b
binding to C3bi [3]: abohshed binding to C3bi
